In patent US11839679B2, “Gamma-diketones for treatment and prevention of aging skin and wrinkles” (BioSplice Therapeutics, Inc., priority 2014, dated 2023):

Tested on: fine lines, wrinkles in the outer canthus of the eyes (crow's feet area)
Experiment: Change in Roughness and Wrinkle Depth via Visioscan, Example 2
Format: in vivo, human
Conditions: Topical 0.05% in Oil (Cohort 2), 21 test subjects
Excerpt: Surface Evaluation of Living Skin Visioscan: The Visioscan (Courage and Khazaka) took a direct image of the living skin using a measuring head containing a CCD-camera and two metal halogen lamps positioned opposite each other in order to ensure even illumination of the measuring field on the skin (Skin Pharmacol Appl Skin Physiol (1999), 12(1-2), 1-11 and Cosmetic & Toiletries magazine (2009), 124(6), 51-54). The grey level distribution of the pixels in the image correspond to different phenomena (white pixels represent desquamation on the skin, dark pixels represent lines and wrinkles). The software with the Visioscan automatically calculates skin smoothness, skin roughness, scaliness and wrinkle parameters. Visioscan images were taken at the following time points: Baseline Day 0 (beginning of the study), Week 2, Week 4, Week 8, and Week 12 (end of the test).
The source data was Visioscan and PhotoGrammetrix Image Analysis readings along with subjective assessments, which were totaled and reported as average scores. Photographs were placed side by side as to compare the photographs of before and after application of the test product in the eye area. Wrinkle reduction analysis source data consisted of crow's feet area quantification in relative units (px), collected at baseline and, the week 2, 4, 8 and 12 evaluations. The data obtained via Visioscan and from PhotoGrammetrix Image Analysis was quoted as % differences from baseline at each of the previously described time points. A paired t-test analysis was conducted in order to compare the results of post test product application measurements to baseline measurements where applicable. Statistical significance was established if p≤(α=0.05) was calculated.
Four groups of women were recruited to evaluate and compare the efficacy of four anti-aging test products (targeting the periorbital eye area) intended to reduce the appearance of fine lines, wrinkles in the outer canthus of the eyes (crow's feet area) over a 12 week period. Wrinkle assessment was conducted instrumentally using a Visioscan image analysis system. Effectiveness of the test product was evaluated using panelist self-assessment via questionnaire responses. Each stage in the progression of treatments was photographically documented using High Resolution Scientifically Matched Photography technique. Image analysis was utilized to quantify changes in fine lines and crow's feet condition observed in the Scientifically Matched Photographs.
Subject Selection: • Number: Eighty three subjects (twenty or twenty one per group) to complete the study. • Sex: Females • Race: Caucasian/Asian/Hispanic • Age Range: 40 through 60 years old
Test samples: • Topical 0.15% of Compound #222 in Oil (a 50/50 mixture of Propylene Glycol Dicaprylate/Dicaprate and Caprylic/Capric Triglyceride) (Cohort 1) • Topical 0.05% of Compound #222 in Oil (a 50/50 mixture of Propylene Glycol Dicaprylate/Dicaprate and Caprylic/Capric Triglyceride) (Cohort 2) • Topical 0.15% of Compound #222 in PEG400 (Cohort 3) • Topical 0.05% of Compound #222 in PEG400 (Cohort 4)
The testing protocol and evaluation was the same as in Example 1.

O=C(CCC(=O)c1ccc2c(c1)OCO2)c1ccccc1 [#222]
% Change in Roughness, Mean (Week 8 vs baseline): −32.9% | % Change in Roughness, Median (Week 8 vs baseline): −33.9% | % Change in Wrinkle Depth, Mean (Week 8 vs baseline): −58.0% | % Change in Wrinkle Depth, Median (Week 8 vs baseline): −59.3% | Change in Roughness, Mean (Week 8 vs baseline): −0.85 | Change in Roughness, Median (Week 8 vs baseline): −0.67 | Change in Wrinkle Depth (×10^4), Mean (Week 8 vs baseline): −0.89 ×10^4 | Change in Wrinkle Depth (×10^4), Median (Week 8 vs baseline): −0.79 ×10^4 | % Change in Roughness, Mean (Week 12 vs baseline): −39.3% | % Change in Roughness, Median (Week 12 vs baseline): −40.9% | % Change in Wrinkle Depth, Mean (Week 12 vs baseline): −54.1% | % Change in Wrinkle Depth, Median (Week 12 vs baseline): −63.5% | Change in Roughness, Mean (Week 12 vs baseline): −1.01 | Change in Roughness, Median (Week 12 vs baseline): −0.79 | Change in Wrinkle Depth (×10^4), Mean (Week 12 vs baseline): −0.92 ×10^4 | Change in Wrinkle Depth (×10^4), Median (Week 12 vs baseline): −0.85 ×10^4
